Results on 11 molecules are retold here after PubChem BioAssay AID180 (DTP/NCI, 2004).

As usually defined, the T/C is the ratio of treated to control.

Where “and” joins values, the source holds several entries; their conditions need not be identical. Equal values may be shown once.

In the assay the test system is BDF1 mice, Adenocarcinoma 755 s.c., tumor weight T/C. The experiment in a line: NCI In Vivo Anticancer Drug Screen. Data for tumor model Adenocarcinoma 755 (subcutaneous) in B6D2F1 (BDF1) mice. Particulars: endpoint: mean tumor weight, schedule: Q01DX011 (ip), higher = larger tumour. The procedure, abridged: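 Transplantable tumor implanted; mice dosed with compound or vehicle; survival or tumor size recorded; ratio of treated to vehicle control reported.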

The mark [1] stands for this setting: dose: 0.3 mg/kg/injection, vehicle: carboxymethylcellulose (CMC).
[2] abbreviates: dose: 0.6 mg/kg/injection, vehicle: carboxymethylcellulose (CMC).
[3] abbreviates: dose: 25.0 mg/kg/injection, vehicle: carboxymethylcellulose (CMC).
[4] abbreviates: dose: 30.0 mg/kg/injection, vehicle: saline.

As for `S=P(N1CC1)(N1CC1)N1CC1`, the T/C is 60 % of control under setting [1]; 45 % of control (dose: 0.48 mg/kg/injection, vehicle: carboxymethylcellulose (CMC)); 91 % of control (dose: 0.58 mg/kg/injection, vehicle: carboxymethylcellulose (CMC)); 53 % of control and 62 % of control (2×) under setting [2]; 90 % of control (dose: 0.65 mg/kg/injection, vehicle: carboxymethylcellulose (CMC)); 62 % of control (dose: 0.75 mg/kg/injection, vehicle: methylcellulose (MC)). For the same molecule, the T/C reads like this: (dose: 0.8 mg/kg/injection, vehicle: carboxymethylcellulose (CMC)) 53 % of control and 77 % of control; (dose: 1.3 mg/kg/injection, vehicle: carboxymethylcellulose (CMC)) 54 % of control; (dose: 1.45 mg/kg/injection, vehicle: carboxymethylcellulose (CMC)) 89 % of control and 99 % of control; (dose: 1.5 mg/kg/injection, vehicle: methylcellulose (MC)) 37 % of control; (dose: 2.4 mg/kg/injection, vehicle: carboxymethylcellulose (CMC)) 14 % of control and 29 % of control and 38 % of control; (dose: 2.6 mg/kg/injection, vehicle: carboxymethylcellulose (CMC)) 35 % of control. Besides, the T/C reads like this: (dose: 2.9 mg/kg/injection, vehicle: carboxymethylcellulose (CMC)) 28 % of control and 52 % of control; (dose: 3.0 mg/kg/injection, vehicle: methylcellulose (MC)) 14 % of control; (dose: 5.2 mg/kg/injection, vehicle: carboxymethylcellulose (CMC)) 7 % of control and 9 % of control; (dose: 6.0 mg/kg/injection, vehicle: methylcellulose (MC)) 6 % of control; (dose: 725.0 micrograms/kg/injection, vehicle: carboxymethylcellulose (CMC)) 83 % of control; (dose: 1450.0 micrograms/kg/injection, vehicle: carboxymethylcellulose (CMC)) 30 % of control. Further, the T/C reads like this: (dose: 2900.0 micrograms/kg/injection, vehicle: carboxymethylcellulose (CMC)) 36 % of control; (dose: 5800.0 micrograms/kg/injection, vehicle: carboxymethylcellulose (CMC)) 26 % of control.
In the case of `O=C(O)CC(O)(CC(=O)O)C(=O)O.[Ga]`, the T/C by setting is: (dose: 0.15 mg/kg/injection, vehicle: carboxymethylcellulose (CMC)) 101 % of control; under setting [1], 67 % of control; (dose: 0.31 mg/kg/injection, vehicle: carboxymethylcellulose (CMC)) 58 % of control; under setting [2], 72 % of control; (dose: 0.62 mg/kg/injection, vehicle: carboxymethylcellulose (CMC)) 55 % of control; (dose: 1.2 mg/kg/injection, vehicle: carboxymethylcellulose (CMC)) 42 % of control and 62 % of control. Moreover, the T/C was 25 % of control and 36 % of control (dose: 1.25 mg/kg/injection, vehicle: carboxymethylcellulose (CMC)); 5 % of control and 18 % of control (dose: 20.0 mg/kg/injection, vehicle: carboxymethylcellulose (CMC)); 5 % of control (dose: 40.0 mg/kg/injection, vehicle: carboxymethylcellulose (CMC)); 2 % of control (dose: 80.0 mg/kg/injection, vehicle: carboxymethylcellulose (CMC)).
As to `COc1ccc(-c2c(C)c(C(=O)O)nc(-c3ccc(C(=O)O)c(C(=O)O)n3)c2N)c(O)c1OC`, the T/C is 58 % of control (dose: 100.0 mg/kg/injection, vehicle: water) and 83 % of control (dose: 200.0 mg/kg/injection, vehicle: water).
`O=C(O)/C=C\C(=O)Nc1nccs1`: under setting [3], the T/C is 80 % of control.
For the molecule `Nc1nc(=S)cc(Nc2ccc(Cl)c(Cl)c2)[nH]1`, the T/C (dose: 15.0 mg/kg/injection, vehicle: methylcellulose (MC)) is 114 % of control and the T/C (dose: 31.0 mg/kg/injection, vehicle: methylcellulose (MC)) was 92 % of control.
With `CC(=O)OCC1OC(n2cnc3c(=O)[nH]cnc32)CC1OC(C)=O` (centres undefined), the T/C was 75 % of control and 78 % of control (dose: 60.0 mg/kg/injection, vehicle: carboxymethylcellulose (CMC)); 86 % of control (dose: 120.0 mg/kg/injection, vehicle: carboxymethylcellulose (CMC)).
Turning to `CS(=O)(=O)OCCC(=O)NCCNC(=O)CCOS(C)(=O)=O`, the T/C was 167 % of control (dose: 6.3 mg/kg/injection, vehicle: saline); 64 % of control (dose: 10.0 mg/kg/injection, vehicle: saline); 120 % of control (dose: 20.0 mg/kg/injection, vehicle: saline); 4 % of control (dose: 25.0 mg/kg/injection, vehicle: methylcellulose (MC)); 65 % of control (dose: 25.0 mg/kg/injection, vehicle: saline); 20 % of control under setting [4]. Further, the T/C was 12 % of control (dose: 40.0 mg/kg/injection, vehicle: saline); 5 % of control and 10 % of control (dose: 50.0 mg/kg/injection, vehicle: saline); 1 % of control (dose: 60.0 mg/kg/injection, vehicle: saline).
`NC(=O)NO`: the T/C (dose: 15.97 mg/kg/injection, vehicle: carboxymethylcellulose (CMC)) is 76 % of control; the T/C under setting [3] was 111 % of control; the T/C (dose: 31.93 mg/kg/injection, vehicle: carboxymethylcellulose (CMC)) was 67 % of control; the T/C (dose: 50.0 mg/kg/injection, vehicle: carboxymethylcellulose (CMC)) is 83 % of control; the T/C (dose: 51.08 mg/kg/injection, vehicle: carboxymethylcellulose (CMC)) is 56 % of control; the T/C (dose: 62.5 mg/kg/injection, vehicle: carboxymethylcellulose (CMC)) is 31 % of control. The T/C reads like this: (dose: 63.85 mg/kg/injection, vehicle: carboxymethylcellulose (CMC)) 41 % of control and 47 % of control; (dose: 85.13 mg/kg/injection, vehicle: carboxymethylcellulose (CMC)) 53 % of control; (dose: 100.0 mg/kg/injection, vehicle: carboxymethylcellulose (CMC)) 58 % of control; (dose: 125.0 mg/kg/injection, vehicle: carboxymethylcellulose (CMC)) 44 % of control; (dose: 127.7 mg/kg/injection, vehicle: carboxymethylcellulose (CMC)) 22 % of control and 39 % of control; (dose: 200.0 mg/kg/injection, vehicle: carboxymethylcellulose (CMC)) 13 % of control. Moreover, the T/C is 6 % of control and 12 % of control and 19 % of control (dose: 250.0 mg/kg/injection, vehicle: carboxymethylcellulose (CMC)); 19 % of control (dose: 500.0 mg/kg/injection, vehicle: carboxymethylcellulose (CMC)).
`Cn1cnc2c(ncn2C2OC(CO)C(O)C2O)c1=N` (centres undefined): the T/C is 118 % of control under setting [4]; 47 % of control (dose: 120.0 mg/kg/injection, vehicle: saline); 74 % of control (dose: 240.0 mg/kg/injection, vehicle: saline).
As for `CC(=O)N(C)c1ccccc1`, the T/C by setting is: (dose: 12.5 mg/kg/injection, vehicle: other) 69 % of control; (dose: 25.0 mg/kg/injection, vehicle: other) 88 % of control; (dose: 50.0 mg/kg/injection, vehicle: other) 73 % of control; (dose: 100.0 mg/kg/injection, vehicle: other) 95 % of control.
As for `COC(C(O)C(O)C(O)C(O)CO)n1cnc2cncnc21` (centres undefined), the T/C (dose: 19.0 mg/kg/injection, vehicle: carboxymethylcellulose (CMC)) was 115 % of control and the T/C (dose: 57.0 mg/kg/injection, vehicle: carboxymethylcellulose (CMC)) is 152 % of control.
